Data reported in article PMC12799421, “Inhibition of constitutive activity of the atypical chemokine receptor 3 by the small-molecule inverse agonist VUF16840” (Molecular Pharmacology, 2025).

Tests used:
Type in all cases: cell-based
ACKR3 [1] = target: T1, ACKR3 (Homo sapiens, UniProt P25106); assay: NanoBiT clathrin A/β-arrestin2 interaction in ACKR3-expressing HEK293T cells
T1 construct: expressed in transfected cells; host or cells: HEK293T
Protocol: (§1) For 1·10^6 HEK293T cells, a transfection mix consisting of 2 μg plasmid DNA, 12 μg linear PEI in a total volume of 200 μL 150 mM NaCl was made and thoroughly vortexed. The transfection mix was incubated for 15 minutes and consequently added to a cell suspension with a final concentration of 3·10^5 cells/mL. For functional studies this cell suspension was immediately transferred to a poly-L-lysine-coated white 96-well plate, with 3·10^4 cells per well. […] For BRET-based membrane localization experiments, the 2 μg plasmid DNA consisted of ACKR3-NL (0.05 μg), mVenus-CAAX (0.25 μg), and pcDEF3 vector DNA without insert (1.7 μg).
(§2) Two days after transfection (vide supra), medium was aspirated and cells were reconstituted in HBSS with 0.05% BSA. […] After treating the cell with ligand furimazine was added (310 times diluted from stock concentration). Cells were incubating at 37 °C for another 3 minutes before detection of bioluminescent intensities.
(§3) Bioluminescence was measured using the PHERAstar-FSX and is a measure for the relative proximity of LgBiT- and SmBiT-tagged proteins and thus the occurrence of investigated protein–protein interaction.[38]
(§4) Fig. 5 Inhibition of both constitutive as well as agonist-induced ACKR3 activity by VUF16840. HEK293T cells were stimulated with increasing concentrations of VUF15485 or VUF16840 only (A–D), or increasing concentrations of VUF16840 in the presence of 100 nM VUF15485 (E–H). The resulting proximity between ACKR3 and β-arrestin1 (A, E), GRK2 (B, F), or Rab5a (C, G) was determined by bioluminescence resonance energy transfer. Furthermore, an interaction between clathrin A and β-arrestin2 was measured by NLuc complementation, as was determined by quantifying the relative light units (D, H). Depicted data is normalized as fold-basal and represents the mean ± SD of N experiments with triplicate measurements per experiment. N is specified in Supplemental Table 1.

ACKR3 [2] = target: T1, ACKR3; assay: BRET β-arrestin1 recruitment to ACKR3 in HEK293T cells; details: for EC50: * VUF16840 as inverse agonist, read-out: β-arrestin1 BRET pEC50 (converted); for IC50: read-out: β-arrestin1 BRET, Inhibition by VUF16840 (pIC50) (converted)
Protocol: For bioluminescence resonance energy transfer (BRET) experiments, several BRET acceptor constructs were used that consist of the pcDEF3 vector with either GRK2 (NCBI: NM_174710.2), β-arrestin1 (NCBI: NM_174243.3), or β-arrestin2 (NCBI: XM_005220181.4) fused at the C-terminus with a SpeI/NotI linker to mVenus (NCBI: KP666136.1), as previously described.[34]
as §1
(§5) Mean pIC50 values were determined by averaging fitted values from individual experiments. Graphs depict the pooled data of all experiments. Similarly, sigmoidal, ligand-induced concentration-dependent activation or inhibition of the proximity between ACKR3 and the protein of interest was analyzed using GraphPad Prism 8, by fitting a 3-parameter concentration-response model to the data, to determine pEC50/pIC50 values. Mean pEC50 values and pIC50 values were determined by averaging fitted values from individual experiments. Graphs depict the pooled data of all experiments, for which values are normalized, per experiment, to the fold difference compared with basal signal.
as §4, with “HEK293T” for “Fig. 5 Inhibition of both constitutive as well as agonist-induced ACKR3 activity by VUF16840. HEK293T”

ACKR3 [3] = target: T1, ACKR3; assay: BRET ACKR3-Rab5a proximity (early endosome translocation) in HEK293T cells; details: for EC50: * VUF16840 as inverse agonist, read-out: Rab5a BRET pEC50 (converted)
Protocol: as §1
as §5, with “The sigmoidal concentration-dependent displacement of binding of the probes [^3H]VUF15485 and CXCL12-A647 by unlabeled ligands were analyzed using GraphPad Prism 8, by fitting a one-site binding model to the data, to determine the pIC50. Mean pIC50” for “Mean pIC50”
(§6) Fig. 5 Inhibition of both constitutive as well as agonist-induced ACKR3 activity by VUF16840. […] The resulting proximity between ACKR3 and β-arrestin1 (A, E), GRK2 (B, F), or Rab5a (C, G) was determined by bioluminescence resonance energy transfer. Furthermore, an interaction between clathrin A and β-arrestin2 was measured by NLuc complementation, as was determined by quantifying the relative light units (D, H). […]

ACKR3 [4] = target: T1, ACKR3; assay: ACKR3 signaling and trafficking sensor assays summarised together (β-arrestin1, GRK2, Rab5a, clathrin A)
Protocol: as §1
Next, it was explored whether VUF16840 could also affect a number of additional ACKR3 signaling or trafficking events. Both β-arrestin1 and GRK2 are known to be recruited to hACKR3 upon activation,[10]^,[23]^,[45],[46] and phosphorylation of the C-terminus is found to be crucial for ACKR3 internalization and β-arrestin1/2 recruitment,[10]^,[47]^,[48] mediated at least in part by GRK2.[10]^,[47] Additionally, clathrin A is a structural protein involved in the formation of clathrin-coated vesicles mediating receptor packaging and internalization, whereas Rab5a is a protein highly expressed in early endosomes.[32]^,[49] […] Agonist-induced internalization of ACKR3 was further monitored by measuring the interaction between clathrin A and β-arrestin 2 using a NanoBiT-based protein–protein interaction assay (Fig. 5D).
as §6

ACKR3 [5] = target: T1, ACKR3; assay: NanoBiT-complementation β-arrestin2 recruitment to hACKR3 in HEK293T cells; details: for EC50: * VUF16840 as inverse agonist, 15 minutes incubation, read-out: β-arrestin2 NanoBit pEC50 (converted)
Protocol: as §1, §2
To determine the insurmountable antagonism of VUF16840, medium of transfected cells was aspirated and cells were reconstituted in HBSS with 20 mM HEPES and 0.1% BSA. Cells were incubated with VUF16840 or buffer for 60 minutes after which furimazine was added and cells were incubated for another 5 minutes, all at 37 °C.
as §3, §5

T1 sequence (P25106 whole entry): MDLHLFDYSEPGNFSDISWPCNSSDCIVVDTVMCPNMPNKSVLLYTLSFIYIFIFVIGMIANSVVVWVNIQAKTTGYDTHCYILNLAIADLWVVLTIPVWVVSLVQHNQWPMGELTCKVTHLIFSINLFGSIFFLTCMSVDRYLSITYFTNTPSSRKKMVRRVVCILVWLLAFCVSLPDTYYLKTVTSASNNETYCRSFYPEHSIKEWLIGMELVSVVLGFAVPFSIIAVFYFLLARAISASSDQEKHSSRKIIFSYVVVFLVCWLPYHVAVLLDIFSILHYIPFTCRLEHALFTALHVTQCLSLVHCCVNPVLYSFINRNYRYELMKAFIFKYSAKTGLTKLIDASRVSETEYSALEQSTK

EC50 (ACKR3 [1]; * VUF16840 as inverse agonist, read-out: Clathrin A/ β-arrestin2 binding pEC50 (converted)) [nM]	IC50 (ACKR3 [1]; versus 100 nM VUF15485, read-out: Clathrin A/ β-arrestin2 binding, Inhibition by VUF16840 (pIC50) (converted)) [nM]	EC50 (ACKR3 [2]) [nM]	IC50 (ACKR3 [2]; versus 100 nM CXCL11) [nM]	IC50 (ACKR3 [2]; versus 100 nM CXCL12) [nM]	IC50 (ACKR3 [2]; versus 100 nM VUF15485) [nM]	EC50 (ACKR3 [3]) [nM]	IC50 (ACKR3 [3]; versus 100 nM VUF15485, read-out: Rab5a BRET, Inhibition by VUF16840 (pIC50) (converted)) [nM]	IC50 (ACKR3 [4]; 100 nM VUF15485, range over assays, read-out: pIC50 values, inhibition of VUF15485-responses (converted)) [nM]	EC50 (ACKR3 [4]; inverse agonist, range over all assay setups, read-out: pEC50 values, inhibition of constitutive ACKR3-mediated responses (converted)) [nM]	fashion of inhibition of CXCL12- and CXCL11-mediated β-arrestin2 recruitment (Schild analysis) (ACKR3 [5]; 60 minutes pretreatment with VUF16840)	EC50 (ACKR3 [5]) [nM]	IC50 (ACKR3 [5]; inverse agonist, after 30 minutes of incubation, read-out: IC50, inhibition of constitutive β-arrestin2 recruitment to hACKR3 (NanoBiT)) [nM]	IC50 (ACKR3 [5]; versus 100 nM VUF15485, read-out: β-arrestin2 NanoBit, Inhibition by VUF16840 (pIC50) (converted)) [nM]	EC50 (ACKR3 [1]; NanoBiT, read-out: EC50, clathrin A/β-arrestin2 interaction) [nM]	EC50 (ACKR3 [4]; agonist, range over assays, read-out: pEC50 values, recruitment of β-arrestin1 and GRK2 and translocation toward early endosomes (converted)) [nM]	SMILES
10	50.1	5.01	2.51	5.01	2	1.58	5.01	2 to 50.1	1.58 to 10	nonsurmountable	15.8	6.3	20			COc1ccccc1CCNC(=O)C1CN(C2CCCCC2)CCC1NC(=O)c1cc(-c2ccc(F)cc2F)on1 (stereo not shown) [VUF16840]
		39.8				7.94					15.8			6	7.94 to 39.8	COc1cc(C(=O)N(CCC2CCCN2C)CC(C)=Cc2ccccc2F)cc(OC)c1OC (stereo not shown) [VUF15485, reference compound]
